# Measured values taken from patent publication EP1171107B1, “USE OF A PHARMACEUTICAL COMPOSITION IN THE MANUFACTURE OF A MEDICAMENT FOR THE TREATMENT OF PATHOLOGICAL CONDITIONS OF THE EYE CAUSED BY BACTERIA, VIRUSES, FUNGI, YEASTS AND PROTOZOA” (Dr. GERHARD MANN chem.-pharm. Fabrik GmbH, priority 1999, dated 2000).
# Counter-ions that a name gives are not always drawn.
# Tests used:
# Format in all cases: cell-based
# E.coli [1] = assay: Quantitative germ count (re-isolation, surface method) after inoculating the test preparation; conditions: Ausgangskeimzahl 2,7 x 10^5 KBE/ml
# Source text: (§1) Escherichia (E.coli) Staphylococcus (S.aureus) Streptococcus (Sc.) Pneumoniae Pseudomonas (P.aeruginosa) Staphylococcus (S. epidermidis) Haemophilus (H. influenzae)
# (§2) Die verschiedenen Testkeime wurde jeweils aus einem Lyophilisat in NaCl-Peptonpuffer homogenisiert und auf Caseinpepton-Sojymehlpepton. (Caso-) Agar (Fa. bioMérieux; Art. Nr. 43019) bez. Kochblut-Agar (Fa. bioMérieux; Art. Nr. 43109) subkultiviert. Die Teststämme wurden vor Versuchsbeginn durch Erstellen eines biochemischen Profils mittels ATB/Vitek-System (Fa. bioMérieux, Nürtingen) auf Reinheit und Identität überprüft.
# (§3) Die Ausgangskeimzahl wurde im Oberflächenverfahren mit Hilfe eines Spiralplaters (Fa. Meintrup, Lähden) ermittelt und ist im einzelnen den Tabellen 1-12 zu entnehmen.
# (§4) Die verschiedenen Testsubstanzen a. bis j. wurden jeweils zu 5 ml in sterile Zentrifugenröhrchen abgefüllt und mit ca. 10^5 KBE^*/ml (* = koloniebildende Einheiten) der oben genannten Testkeime kontaminiert. Pro Substanz wurde für jeden Testkeim und jede zu prüfende Testzeit ein separater Ansatz angeimpft, d.h.10 Testsubstanzen zu jeweils 7 Testzeiten und 6 Testkeime (= insgesamt 502 Testansätze). […] Der Überstand wurde dekantiert und das Pellet in 5 ml NaCl Peptonpuffer aufgenommen und resuspendiert. Die Suspension wurde erneut 10 Minuten bei 3000 rpm abzentrifugiert und 5 ml NaCl-Peptonpuffer aufgenommen und mittels Vortex homogenisiert.
# (§5) Die anschließende Keimzahlbestimmung erfolgte im Oberflächenverfahren durch Ausspiralisieren eines […] Aliquots auf Caso-Agar bzw. für H. influenzae auf Kochblut-Agar. Die Platten wurden bei 33±2°C für max. 4 Tage bebrütet. Die Nachweisgrenze des Verfahrens liegt bei 100 KBE/ml.
# H.influenzae = assay: as above; conditions: Ausgangskeimzahl 2,8 x 10^5 KBE/ml
# Source text: as §1, §2, §3, §4, §5
# S.aureus [2] = assay: as above; conditions: Ausgangskeimzahl 2,6 x 10^5 KBE/ml
# Source text: as §1, §2, §3, §4, §5
# Sc. pneumoniae [3] = assay: as above; conditions: Ausgangskeimzahl 3,7 x 10^5 KBE/ml
# Source text: as §1, §2, §3, §4, §5
# P.aeruginosa [4] = assay: as above; conditions: Ausgangskeimzahl 2,7 x 10^5 KBE/ml
# Source text: as §1, §2, §3
# (§6) Die verschiedenen Testsubstanzen a. bis j. wurden jeweils zu 5 ml in sterile Zentrifugenröhrchen abgefüllt und mit ca. 10^5 KBE^*/ml (* = koloniebildende Einheiten) der oben genannten Testkeime kontaminiert. Pro Substanz wurde für jeden Testkeim und jede zu prüfende Testzeit ein separater Ansatz angeimpft, d.h.10 Testsubstanzen zu jeweils 7 Testzeiten und 6 Testkeime (= insgesamt 502 Testansätze). Nach 2, 6, 8, 24, 32, 48 und 72 Stunden wurde dann der jeweilige Testansatz 10 Minuten bei 3000 rpm abzentrifugiert. Der Überstand wurde dekantiert und das Pellet in 5 ml NaCl Peptonpuffer aufgenommen und resuspendiert. Die Suspension wurde erneut 10 Minuten bei 3000 rpm abzentrifugiert und 5 ml NaCl-Peptonpuffer aufgenommen und mittels Vortex homogenisiert.
# as §5
# S.epidermidis [5] = assay: as above; conditions: Ausgangskeimzahl 2,1 x 10^5 KBE/ml
# Source text: as §1, §2, §3, §6, §5
# E.coli [6] = assay: Qualitative examination: enrichment of the inoculated test preparation in broth
# Source text: as §1, §2, §4
# (§7) Jeweils 2 ml der Testansätze wurden in 20 ml Caso-Bouillon oder für H. influenzae, in Fildes-Medium der Firma Becton Dickinson, ARt. Nr. 0349-739, angereichert und ebenfalls maximal 4 Tage bei 33± 2°C bebrütet. Ein negatives Ergebnis der Anreicherung belegt die Elimination der inokulierten Keime.
# S.aureus [7] = assay: as above
# Source text: as §1, §2, §4, §7
# S.epidermidis [8] = assay: as above
# Source text: as §1, §2, §4, §7
# Sc. pneumoniae [9] = assay: as above
# Source text: as §1, §2, §4, §7
# P.aeruginosa [10] = assay: as above
# Source text: as §1, §2, §6, §7
structure (smiles),measurement,setting,value
"O=C(O)c1cn(C2CC2)c2cc(N3CCNCC3)c(F)cc2c1=O [Ciprofloxacin HCl 0,35 Gew.-%, Ciprofloxacin HCl, reference compound]",Ergebnis der Reisolierung (in KBE/ml),E.coli [1]; 2 h after inoculation,<100 KBE/ml
same,Ergebnis der Reisolierung (in KBE/ml),E.coli [1]; 4 h after inoculation,<100 KBE/ml
same,Ergebnis der Reisolierung (in KBE/ml),E.coli [1]; 6 h after inoculation,<100 KBE/ml
same,Ergebnis der Reisolierung (in KBE/ml),E.coli [1]; 8 h after inoculation,<100 KBE/ml
same,Ergebnis der Reisolierung (in KBE/ml),E.coli [1]; 24 h after inoculation,<100 KBE/ml
same,Ergebnis der Reisolierung (in KBE/ml),E.coli [1]; 32 h after inoculation,<100 KBE/ml
same,Ergebnis der Reisolierung (in KBE/ml),E.coli [1]; 48 h after inoculation,<100 KBE/ml
same,Ergebnis der Reisolierung (in KBE/ml),E.coli [1]; 72 h after inoculation,<100 KBE/ml
same,Ergebnis der Reisolierung (in KBE/ml),H.influenzae; 2 h after inoculation,<100 KBE/ml
same,Ergebnis der Reisolierung (in KBE/ml),H.influenzae; 4 h after inoculation,<100 KBE/ml
same,Ergebnis der Reisolierung (in KBE/ml),H.influenzae; 6 h after inoculation,<100 KBE/ml
same,Ergebnis der Reisolierung (in KBE/ml),H.influenzae; 8 h after inoculation,<100 KBE/ml
same,Ergebnis der Reisolierung (in KBE/ml),H.influenzae; 24 h after inoculation,<100 KBE/ml
same,Ergebnis der Reisolierung (in KBE/ml),H.influenzae; 32 h after inoculation,<100 KBE/ml
same,Ergebnis der Reisolierung (in KBE/ml),H.influenzae; 48 h after inoculation,<100 KBE/ml
same,Ergebnis der Reisolierung (in KBE/ml),H.influenzae; 72 h after inoculation,<100 KBE/ml
same,Ergebnis der Reisolierung (in KBE/ml),S.aureus [2]; 2 h after inoculation,<100 KBE/ml
same,Ergebnis der Reisolierung (in KBE/ml),S.aureus [2]; 4 h after inoculation,<100 KBE/ml
same,Ergebnis der Reisolierung (in KBE/ml),S.aureus [2]; 6 h after inoculation,<100 KBE/ml
same,Ergebnis der Reisolierung (in KBE/ml),S.aureus [2]; 24 h after inoculation,<100 KBE/ml
same,Ergebnis der Reisolierung (in KBE/ml),S.aureus [2]; 32 h after inoculation,<100 KBE/ml
same,Ergebnis der Reisolierung (in KBE/ml),S.aureus [2]; 48 h after inoculation,<100 KBE/ml
same,Ergebnis der Reisolierung (in KBE/ml),S.aureus [2]; 72 h after inoculation,<100 KBE/ml
same,Ergebnis der Reisolierung (in KBE/ml),Sc. pneumoniae [3]; 2 h after inoculation,<100 KBE/ml
same,Ergebnis der Reisolierung (in KBE/ml),Sc. pneumoniae [3]; 4 h after inoculation,<100 KBE/ml
same,Ergebnis der Reisolierung (in KBE/ml),Sc. pneumoniae [3]; 6 h after inoculation,<100 KBE/ml
same,Ergebnis der Reisolierung (in KBE/ml),Sc. pneumoniae [3]; 8 h after inoculation,<100 KBE/ml
same,Ergebnis der Reisolierung (in KBE/ml),Sc. pneumoniae [3]; 24 h after inoculation,<100 KBE/ml
same,Ergebnis der Reisolierung (in KBE/ml),Sc. pneumoniae [3]; 32 h after inoculation,<100 KBE/ml
same,Ergebnis der Reisolierung (in KBE/ml),Sc. pneumoniae [3]; 48 h after inoculation,<100 KBE/ml
same,Ergebnis der Reisolierung (in KBE/ml),Sc. pneumoniae [3]; 72 h after inoculation,<100 KBE/ml
same,Ergebnis der Reisolierung (in KBE/ml),P.aeruginosa [4]; 2 h after inoculation,<100 KBE/ml
same,Ergebnis der Reisolierung (in KBE/ml),P.aeruginosa [4]; 4 h after inoculation,<100 KBE/ml
same,Ergebnis der Reisolierung (in KBE/ml),P.aeruginosa [4]; 6 h after inoculation,<100 KBE/ml
same,Ergebnis der Reisolierung (in KBE/ml),P.aeruginosa [4]; 8 h after inoculation,<100 KBE/ml
same,Ergebnis der Reisolierung (in KBE/ml),P.aeruginosa [4]; 24 h after inoculation,<100 KBE/ml
same,Ergebnis der Reisolierung (in KBE/ml),P.aeruginosa [4]; 32 h after inoculation,<100 KBE/ml
same,Ergebnis der Reisolierung (in KBE/ml),P.aeruginosa [4]; 48 h after inoculation,<100 KBE/ml
same,Ergebnis der Reisolierung (in KBE/ml),P.aeruginosa [4]; 72 h after inoculation,<100 KBE/ml
same,Ergebnis der Reisolierung (in KBE/ml),S.epidermidis [5]; 2 h after inoculation,<100 KBE/ml
same,Ergebnis der Reisolierung (in KBE/ml),S.epidermidis [5]; 4 h after inoculation,<100 KBE/ml
same,Ergebnis der Reisolierung (in KBE/ml),S.epidermidis [5]; 6 h after inoculation,<100 KBE/ml
same,Ergebnis der Reisolierung (in KBE/ml),S.epidermidis [5]; 8 h after inoculation,<100 KBE/ml
same,Ergebnis der Reisolierung (in KBE/ml),S.epidermidis [5]; 24 h after inoculation,<100 KBE/ml
same,Ergebnis der Reisolierung (in KBE/ml),S.epidermidis [5]; 32 h after inoculation,<100 KBE/ml
same,Ergebnis der Reisolierung (in KBE/ml),S.epidermidis [5]; 48 h after inoculation,<100 KBE/ml
same,Ergebnis der Reisolierung (in KBE/ml),S.epidermidis [5]; 72 h after inoculation,<100 KBE/ml
same,Ergebnis der Reisolierung qualitiativ (+/-) nach Anreicherung,E.coli [6]; 2 h after inoculation,-
same,Ergebnis der Reisolierung qualitiativ (+/-) nach Anreicherung,E.coli [6]; 4 h after inoculation,-
same,Ergebnis der Reisolierung qualitiativ (+/-) nach Anreicherung,E.coli [6]; 6 h after inoculation,-
same,Ergebnis der Reisolierung qualitiativ (+/-) nach Anreicherung,E.coli [6]; 8 h after inoculation,-
same,Ergebnis der Reisolierung qualitiativ (+/-) nach Anreicherung,E.coli [6]; 24 h after inoculation,-
same,Ergebnis der Reisolierung qualitiativ (+/-) nach Anreicherung,E.coli [6]; 32 h after inoculation,-
same,Ergebnis der Reisolierung qualitiativ (+/-) nach Anreicherung,E.coli [6]; 48 h after inoculation,-
same,Ergebnis der Reisolierung qualitiativ (+/-) nach Anreicherung,E.coli [6]; 72 h after inoculation,-
same,Ergebnis der Reisolierung qualitiativ (+/-) nach Anreicherung,S.aureus [7]; 2 h after inoculation,+
same,Ergebnis der Reisolierung qualitiativ (+/-) nach Anreicherung,S.aureus [7]; 4 h after inoculation,+
same,Ergebnis der Reisolierung qualitiativ (+/-) nach Anreicherung,S.aureus [7]; 6 h after inoculation,+
same,Ergebnis der Reisolierung qualitiativ (+/-) nach Anreicherung,S.aureus [7]; 8 h after inoculation,+
same,Ergebnis der Reisolierung qualitiativ (+/-) nach Anreicherung,S.aureus [7]; 24 h after inoculation,-
same,Ergebnis der Reisolierung qualitiativ (+/-) nach Anreicherung,S.aureus [7]; 32 h after inoculation,-
same,Ergebnis der Reisolierung qualitiativ (+/-) nach Anreicherung,S.aureus [7]; 48 h after inoculation,-
same,Ergebnis der Reisolierung qualitiativ (+/-) nach Anreicherung,S.aureus [7]; 72 h after inoculation,-
same,Ergebnis der Reisolierung qualitiativ (+/-) nach Anreicherung,S.epidermidis [8]; 2 h after inoculation,+
same,Ergebnis der Reisolierung qualitiativ (+/-) nach Anreicherung,S.epidermidis [8]; 4 h after inoculation,+
same,Ergebnis der Reisolierung qualitiativ (+/-) nach Anreicherung,S.epidermidis [8]; 6 h after inoculation,+
same,Ergebnis der Reisolierung qualitiativ (+/-) nach Anreicherung,S.epidermidis [8]; 8 h after inoculation,-
same,Ergebnis der Reisolierung qualitiativ (+/-) nach Anreicherung,S.epidermidis [8]; 24 h after inoculation,-
same,Ergebnis der Reisolierung qualitiativ (+/-) nach Anreicherung,S.epidermidis [8]; 32 h after inoculation,-
same,Ergebnis der Reisolierung qualitiativ (+/-) nach Anreicherung,S.epidermidis [8]; 48 h after inoculation,-
same,Ergebnis der Reisolierung qualitiativ (+/-) nach Anreicherung,S.epidermidis [8]; 72 h after inoculation,-
same,Ergebnis der Reisolierung qualitiativ (+/-) nach Anreicherung,Sc. pneumoniae [9]; 2 h after inoculation,-
same,Ergebnis der Reisolierung qualitiativ (+/-) nach Anreicherung,Sc. pneumoniae [9]; 4 h after inoculation,-
same,Ergebnis der Reisolierung qualitiativ (+/-) nach Anreicherung,Sc. pneumoniae [9]; 6 h after inoculation,-
same,Ergebnis der Reisolierung qualitiativ (+/-) nach Anreicherung,Sc. pneumoniae [9]; 8 h after inoculation,-
same,Ergebnis der Reisolierung qualitiativ (+/-) nach Anreicherung,Sc. pneumoniae [9]; 24 h after inoculation,-
same,Ergebnis der Reisolierung qualitiativ (+/-) nach Anreicherung,Sc. pneumoniae [9]; 32 h after inoculation,-
same,Ergebnis der Reisolierung qualitiativ (+/-) nach Anreicherung,Sc. pneumoniae [9]; 48 h after inoculation,-
same,Ergebnis der Reisolierung qualitiativ (+/-) nach Anreicherung,Sc. pneumoniae [9]; 72 h after inoculation,-
same,Ergebnis der Reisolierung qualitiativ (+/-) nach Anreicherung,P.aeruginosa [10]; 2 h after inoculation,-
same,Ergebnis der Reisolierung qualitiativ (+/-) nach Anreicherung,P.aeruginosa [10]; 4 h after inoculation,-
same,Ergebnis der Reisolierung qualitiativ (+/-) nach Anreicherung,P.aeruginosa [10]; 6 h after inoculation,-
same,Ergebnis der Reisolierung qualitiativ (+/-) nach Anreicherung,P.aeruginosa [10]; 8 h after inoculation,- -
same,Ergebnis der Reisolierung qualitiativ (+/-) nach Anreicherung,P.aeruginosa [10]; 24 h after inoculation,-
same,Ergebnis der Reisolierung qualitiativ (+/-) nach Anreicherung,P.aeruginosa [10]; 32 h after inoculation,-
same,Ergebnis der Reisolierung qualitiativ (+/-) nach Anreicherung,P.aeruginosa [10]; 48 h after inoculation,-
same,Ergebnis der Reisolierung qualitiativ (+/-) nach Anreicherung,P.aeruginosa [10]; 72 h after inoculation,-
